# Like-named read-outs stand apart in the source and are kept apart here.
# B1: Fab: Fab fragment of the 4G9 mouse monoclonal antibody (IgG2b, κ) raised against α3β4 (antibody, V domains shown)
# VH: QVQLQQSGPELVRPGVSVKISCKGSGYTFTDYALYWVRQSHAKSLEWIGVINPYSGNTNYNQKFKGKATMTVDKSSSTAYMELARLTSDDSAIYYCASGYDGYPYTMDYWGPGASVTVSS
# VL: QIVLTQSPAIMSASPGEKVTMTCSASSSMTYMHWYQQKSGTSPKRWIYDTSQLASGVPARFRGSGSGTSFSLTISSMEAEDAATYYCQQWSSNPLTFGGGTKLELK
# Legend:
# [1] = system: α3β4; settings: cited from earlier work
# [2] = pKa of the bridging nitrogen; type: physicochemical; settings: positively-charged bridging nitrogen of the bicyclic ring
# [3] = system: human α3β4 receptor; settings: ref Tuan et al., 2015; cited from earlier work
# [4] = biological target: T1, α3β4 receptor (Homo sapiens, UniProt P30926+P32297, DEL362-406/DEL379-429/F412N/I408D/INS413[…]/INS432[…]/L414K/P409L/R410E/R415Y/S416L/S433L/V431D); assay: Functional response to nicotine in presence of Fab; type: cell-based; settings: Fig. S1B
# [5] = biological target: T1, α3β4 receptor; type: binding; settings: Fab in large excess (1 μM); Fig. S1C-F
# [6] = ref Eaton et al., 2003, Xiao et al., 1998
molecule,measurement,setting,value
Clc1ccc(C2CC3CCC2N3)cn1 (centres unmarked) [epibatidine],affinity lower for α3β4 than for α4β2,[1]; [6],10-100 fold
CN1CCC[C@H]1c1cccnc1 [nicotine],affinity lower for α3β4 than for α4β2,[1],10-100 fold
CN1C2CCCC1CC(Nc1ccccc1Br)C2 (centres unmarked) [AT-1001],pKa,[2],9.35
same,affinity to the human α3β4 receptor,[3],sub-nanomolar
same,selectivity for α3β4 over α4β2,[3],~ 200 fold
CC(=O)OCC[N+](C)(C)C [acetylcholine],affinity lower for α3β4 than for α4β2,[1]; [6],10-100 fold
B1,effect on the functional response to nicotine,[4],little to no effect
same,effect on ligand binding,[5],small positive effect
